ChEMBL document CHEMBL1141145, “A chiral benzoquinolizine-2-carboxylic acid arginine salt active against vancomycin-resistant Staphylococcus aureus” (J Med Chem, 2005)
In brackets after ≈: the same amount, converted by molar mass.

Columns and labels:
Streptococcus agalactiae = assay: Minimum inhibitory concentration against Streptococcus agalactiae ATCC 13813; format: functional
[1] = test system: Staphylococcus saprophyticus; assay: Minimum inhibitory concentration against Staphylococcus saprophyticus ATCC 15305; format: functional
Enterococcus faecalis = assay: Minimum inhibitory concentration against Enterococcus faecalis ATCC 29212; format: functional
Klebsiella pneumoniae = assay: Minimum inhibitory concentration against Klebsiella pneumoniae ATCC 10031; format: functional
Phocaeicola vulgatus = assay: Minimum inhibitory concentration against Bacteroides vulgatus ATCC 29327; format: functional
Staphylococcus aureus [2] = assay: Minimum inhibitory concentration against Staphylococcus aureus ATCC 25923; format: functional
Streptococcus sanguinis = assay: Minimum inhibitory concentration against Streptococcus sanguis ATCC 10556; format: functional
Staphylococcus aureus [3] = assay: Minimum inhibitory concentration against Staphylococcus aureus grlA mutant; format: functional
Streptococcus pyogenes = assay: Minimum inhibitory concentration against Streptococcus pyogenes ATCC 19615; format: functional
[4] = test system: Staphylococcus haemolyticus; assay: Minimum inhibitory concentration against Staphylococcus haemolyticus ATCC 29970; format: functional
[5] = target: T1, DNA gyrase (Staphylococcus aureus) (UniProt P0A0K8+P20831)
T1 sequence (P0A0K8 2-644 limits assumed): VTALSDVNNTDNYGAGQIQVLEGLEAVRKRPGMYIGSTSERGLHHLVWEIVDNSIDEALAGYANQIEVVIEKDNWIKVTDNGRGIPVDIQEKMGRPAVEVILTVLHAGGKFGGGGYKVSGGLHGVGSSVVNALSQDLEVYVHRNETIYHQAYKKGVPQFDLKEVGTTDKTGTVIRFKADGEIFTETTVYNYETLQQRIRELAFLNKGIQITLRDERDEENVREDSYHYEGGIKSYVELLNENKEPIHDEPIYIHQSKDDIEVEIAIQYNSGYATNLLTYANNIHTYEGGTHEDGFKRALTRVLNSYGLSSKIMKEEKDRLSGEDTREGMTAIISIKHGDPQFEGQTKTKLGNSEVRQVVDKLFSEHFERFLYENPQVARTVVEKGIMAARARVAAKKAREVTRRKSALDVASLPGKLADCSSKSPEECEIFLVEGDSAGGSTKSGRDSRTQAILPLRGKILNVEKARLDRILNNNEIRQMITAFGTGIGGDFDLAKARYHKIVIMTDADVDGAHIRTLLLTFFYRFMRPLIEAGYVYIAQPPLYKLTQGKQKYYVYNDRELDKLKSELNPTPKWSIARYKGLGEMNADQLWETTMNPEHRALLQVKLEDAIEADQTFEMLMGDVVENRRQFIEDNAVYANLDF
T1 sequence (P20831 whole entry partner): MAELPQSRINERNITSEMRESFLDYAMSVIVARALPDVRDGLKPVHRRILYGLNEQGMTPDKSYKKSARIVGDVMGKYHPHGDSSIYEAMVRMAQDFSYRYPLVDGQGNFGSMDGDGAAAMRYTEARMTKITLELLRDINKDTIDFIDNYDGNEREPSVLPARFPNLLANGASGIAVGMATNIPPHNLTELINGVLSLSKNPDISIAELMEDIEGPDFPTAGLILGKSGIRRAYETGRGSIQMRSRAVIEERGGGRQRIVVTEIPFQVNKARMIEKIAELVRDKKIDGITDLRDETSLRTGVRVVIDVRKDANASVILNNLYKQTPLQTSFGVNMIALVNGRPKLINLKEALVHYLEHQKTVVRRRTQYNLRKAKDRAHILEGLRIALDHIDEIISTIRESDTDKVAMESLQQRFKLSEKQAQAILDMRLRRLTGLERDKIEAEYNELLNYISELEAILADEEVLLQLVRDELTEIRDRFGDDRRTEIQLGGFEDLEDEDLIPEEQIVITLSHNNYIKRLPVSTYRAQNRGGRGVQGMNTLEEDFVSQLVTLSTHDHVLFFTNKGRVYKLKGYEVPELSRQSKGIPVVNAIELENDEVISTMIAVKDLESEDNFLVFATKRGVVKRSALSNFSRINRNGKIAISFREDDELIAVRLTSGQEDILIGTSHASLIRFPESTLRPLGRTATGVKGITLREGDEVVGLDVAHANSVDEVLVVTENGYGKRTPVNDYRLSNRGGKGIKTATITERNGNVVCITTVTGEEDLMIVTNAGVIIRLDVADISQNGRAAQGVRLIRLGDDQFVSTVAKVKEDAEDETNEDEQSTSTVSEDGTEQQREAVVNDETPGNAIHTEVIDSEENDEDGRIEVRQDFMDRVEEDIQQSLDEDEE

[6] = target: DNA topoisomerase 4 subunit A (Staphylococcus aureus) (UniProt P0C1U9)
DNA topoisomerase 4 subunit A (Staphylococcus aureus), sequence (P0C1U9 whole entry): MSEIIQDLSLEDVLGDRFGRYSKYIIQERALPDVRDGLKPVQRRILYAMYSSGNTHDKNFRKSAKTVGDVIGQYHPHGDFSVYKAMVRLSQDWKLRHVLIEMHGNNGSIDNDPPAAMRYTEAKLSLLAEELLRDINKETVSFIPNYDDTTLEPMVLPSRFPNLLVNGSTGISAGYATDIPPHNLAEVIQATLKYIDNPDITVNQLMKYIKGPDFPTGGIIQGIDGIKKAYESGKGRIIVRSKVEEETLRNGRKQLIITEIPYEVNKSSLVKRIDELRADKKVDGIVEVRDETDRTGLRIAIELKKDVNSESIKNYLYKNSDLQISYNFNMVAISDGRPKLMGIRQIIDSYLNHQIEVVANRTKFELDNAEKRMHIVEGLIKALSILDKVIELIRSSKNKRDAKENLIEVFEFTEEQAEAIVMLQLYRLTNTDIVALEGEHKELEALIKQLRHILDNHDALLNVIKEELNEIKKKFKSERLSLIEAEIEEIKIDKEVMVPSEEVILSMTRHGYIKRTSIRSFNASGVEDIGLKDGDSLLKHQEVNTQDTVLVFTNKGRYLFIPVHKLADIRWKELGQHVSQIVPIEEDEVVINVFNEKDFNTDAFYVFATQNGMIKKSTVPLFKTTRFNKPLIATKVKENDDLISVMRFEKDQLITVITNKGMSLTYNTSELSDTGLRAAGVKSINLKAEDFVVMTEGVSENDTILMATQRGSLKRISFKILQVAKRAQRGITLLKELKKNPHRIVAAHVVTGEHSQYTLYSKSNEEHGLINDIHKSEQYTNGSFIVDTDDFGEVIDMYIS

Escherichia coli = assay: microbe, parasite or virus in culture; conditions: ATCC 25922
Pseudomonas aeruginosa = assay: microbe, parasite or virus in culture; conditions: ATCC 27853
Mus musculus [7] = assay: Protection of mice infected with MRSA-32 cell suspension after oral administration of compound; format: functional; conditions: Mus musculus, MRSA-32, po; read-out: ED50
Mus musculus [8] = assay: Protection of mice infected with MRSA-32 cell suspension after s.c. administration of compound; format: functional; conditions: MRSA-32, sc
Staphylococcus aureus [9] = assay: Minimum inhibitory concentration against methicillin susceptible Staphylococcus aureus in the absence of esterase action; format: functional
Staphylococcus aureus [10] = assay: Minimum inhibitory concentration against vancomycin intermediate Staphylococcus aureus MU 3; format: functional
Staphylococcus aureus [11] = assay: Mutant prevention concentration aganist methicillin resistant Staphylococcus aureus-5023 done for 48 hr at 37 degree C with compound; format: functional
Mus musculus [12] = assay: Efficacy against mice infected with MRSA-32 upon s.c. administration; format: functional; conditions: MRSA-32, sc
Mus musculus [13] = assay: Efficacy against mice infected with MRSA-33 upon s.c. administration; format: functional; conditions: sc
Mus musculus [14] = assay: Efficacy against mice infected with Staphylococcus aureus ATCC 25923 upon s.c. administration; format: functional; conditions: sc
Staphylococcus aureus [15] = assay: Frequency of resistance emergence for methicillin resistant Staphylococcus aureus-32; format: functional
Staphylococcus aureus [16] = assay: Frequency of resistance emergence for methicillin resistant Staphylococcus aureus-33; format: functional
Staphylococcus aureus [17] = assay: Frequency of resistance emergence for methicillin resistant Staphylococcus aureus-5023; format: functional
Staphylococcus aureus [18] = assay: Mutant prevention concentration against methicillin resistant Staphylococcus aureus-32 done for 48 h at 37 degree C with compound; format: functional
Staphylococcus aureus [19] = assay: Mutant prevention concentration aganist methicillin resistant Staphylococcus aureus-33 done for 48 hr at 37 degree C with compound; format: functional
Staphylococcus aureus [20] = assay: microbe, parasite or virus in culture
Staphylococcus aureus [21] = assay: microbe, parasite or virus in culture; remark: listed apart in the source
Staphylococcus aureus [22] = assay: microbe, parasite or virus in culture; remark: listed apart in the source
Staphylococcus aureus [23] = assay: microbe, parasite or virus in culture; remark: listed apart in the source
Staphylococcus aureus [24] = assay: Ratio of MPC to MIC aganist methicillin resistant Staphylococcus aureus-32; format: functional
Staphylococcus aureus [25] = assay: Ratio of MPC to MIC against methicillin resistant Staphylococcus aureus-33; format: functional
Staphylococcus aureus [26] = assay: Ratio of MPC to MIC against methicillin resistant Staphylococcus aureus-5023; format: functional
physchem [27] = conditions: octanol/water, pH 7.4
physchem [28] = assay: physchem
physchem [29] = assay: physchem; remark: listed apart in the source
physchem [30] = conditions: octanol/water, pH 2
Streptococcus pneumoniae [31] = assay: microbe, parasite or virus in culture; conditions: ATCC 6303
Streptococcus pneumoniae [32] = assay: microbe, parasite or virus in culture; conditions: ATCC 49619
Staphylococcus aureus [33] = assay: Minimum inhibitory concentration against Staphylococcus aureus gyrA/grlA double mutant; format: functional
Staphylococcus aureus [34] = assay: Minimum inhibitory concentration against methicillin susceptible Staphylococcus aureus; format: functional; conditions: Staphylococcus aureus; read-out: MIC
Staphylococcus aureus [35] = assay: Minimum inhibitory concentration against Staphylococcus aureus gyrA mutant; format: functional
Staphylococcus aureus [36] = assay: Minimum inhibitory concentration against Staphylococcus aureus ISP 794 (wild type); format: functional
Staphylococcus aureus [37] = assay: Minimum inhibitory concentration against Vancomycin intermediate Staphylococcus aureus MU 50; format: functional
Staphylococcus aureus [38] = assay: Minimum inhibitory concentration against vancomycin-resistant Staphylococcus aureus (Hershey); format: functional
Rattus norvegicus = assay: Amount of drug at which at 14 days of daily administration produced no venous blockage or phlebitis in rats; format: functional
[39] = Peak plasma concentration in phase I clinical studies at a i.v. dose of 600 mg; format: ADME, organism-based; set-up: dose 600 mg, route intravenous; conditions: human, iv
[40] = Half life in phase I clinical studies at a i.v. dose of 600 mg; format: ADME, organism-based; conditions: human, in vivo, iv
DNA gyrase [41] = target: T2, DNA gyrase (Staphylococcus aureus, UniProt P0A0K8+P20831)
T2 sequence (P0A0K8 whole entry): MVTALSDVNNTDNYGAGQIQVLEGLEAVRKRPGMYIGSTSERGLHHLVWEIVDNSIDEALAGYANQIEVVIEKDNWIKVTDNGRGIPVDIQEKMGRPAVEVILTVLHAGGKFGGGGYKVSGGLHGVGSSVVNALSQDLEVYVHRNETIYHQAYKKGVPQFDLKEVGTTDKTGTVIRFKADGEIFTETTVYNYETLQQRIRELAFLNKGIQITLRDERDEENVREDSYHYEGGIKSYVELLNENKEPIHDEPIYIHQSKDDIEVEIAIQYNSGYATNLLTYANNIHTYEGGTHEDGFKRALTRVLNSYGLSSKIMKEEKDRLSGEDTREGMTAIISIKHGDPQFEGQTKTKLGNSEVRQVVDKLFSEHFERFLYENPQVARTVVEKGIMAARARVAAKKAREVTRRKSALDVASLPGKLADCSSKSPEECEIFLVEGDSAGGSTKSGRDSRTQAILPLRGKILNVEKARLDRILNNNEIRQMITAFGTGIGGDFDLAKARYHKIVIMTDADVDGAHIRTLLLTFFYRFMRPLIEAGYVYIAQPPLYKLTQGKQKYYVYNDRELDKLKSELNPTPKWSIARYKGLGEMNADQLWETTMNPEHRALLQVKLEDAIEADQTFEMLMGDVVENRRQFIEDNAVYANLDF
T2 sequence (P20831 whole entry): as the sequence (P20831 whole entry partner) above

[42] = target: DNA topoisomerase 4 subunit A (Staphylococcus aureus, UniProt P0C1U9)
DNA topoisomerase 4 subunit A, sequence (P0C1U9 whole entry): as the sequence (P0C1U9 whole entry) above

physchem [43] = assay: physchem; remark: listed apart in the source
DNA gyrase [44] = target: T2, DNA gyrase; remark: listed apart in the source
[45] = target: DNA topoisomerase 4 subunit A (Staphylococcus aureus) (UniProt P0C1U9); remark: listed apart in the source
[46] = target: T1, DNA gyrase (Staphylococcus aureus); remark: listed apart in the source

O=C(O)c1cn(C2CC2)c2cc(N3CCNCC3)c(F)cc2c1=O [CIPROFLOXACIN]
MIC (Streptococcus agalactiae): 2 µg/mL (≈ 6.04 µM)
MIC [1]: 0.5 µg/mL (≈ 1.51 µM)
MIC (Enterococcus faecalis): 2 µg/mL (≈ 6.04 µM)
MIC (Klebsiella pneumoniae): < 0.008 µg/mL
MIC (Phocaeicola vulgatus): 8 µg/mL (≈ 24.1 µM)
MIC (Staphylococcus aureus [2]): 1 µg/mL (≈ 3.02 µM)
MIC (Streptococcus sanguinis): 2 µg/mL (≈ 6.04 µM)
MIC (Staphylococcus aureus [3]): 1 µg/mL (≈ 3.02 µM)
MIC (Streptococcus pyogenes): 0.5 µg/mL (≈ 1.51 µM)
MIC [4]: 0.25 µg/mL (≈ 0.754 µM)
CC50 [5]: 50 µg/mL (≈ 151 µM)
CC50 [6]: 2.5 µg/mL (≈ 7.54 µM)
MIC (Escherichia coli): < 0.008 µg/mL
MIC (Pseudomonas aeruginosa): 1 µg/mL (≈ 3.02 µM)

C[C@H]1CCc2c(N3CCC(O)CC3)c(F)cc3c(=O)c(C(=O)O)cn1c23 [LEVONADIFLOXACIN]
ED50 (Mus musculus [7]): 62.3 mg/kg
ED50 (Mus musculus [8]): 24.8 mg/kg
MIC (Staphylococcus aureus [9]): 0.03 µg/mL (≈ 0.0832 µM)

COc1c(N2C[C@@H]3CCCN[C@@H]3C2)c(F)cc2c(=O)c(C(=O)O)cn(C3CC3)c12 [MOXIFLOXACIN]
MIC (Staphylococcus aureus [10]): 4 µg/mL (≈ 9.96 µM)
MIC (Streptococcus agalactiae): 0.12 µg/mL (≈ 0.299 µM)
MIC [1]: 0.25 µg/mL (≈ 0.623 µM)
MIC (Enterococcus faecalis): 0.25 µg/mL (≈ 0.623 µM)
MIC (Klebsiella pneumoniae): 0.008 µg/mL (≈ 0.0199 µM)
MIC (Phocaeicola vulgatus): 0.5 µg/mL (≈ 1.25 µM)
MPC (Staphylococcus aureus [11]): 10 µg/mL
MIC (Staphylococcus aureus [2]): 0.06 µg/mL (≈ 0.149 µM)
MIC (Streptococcus sanguinis): 0.5 µg/mL (≈ 1.25 µM)
MIC (Streptococcus pyogenes): 0.25 µg/mL (≈ 0.623 µM)
ED50 (Mus musculus [12]): 30 mg/kg
ED50 (Mus musculus [13]): 66.1 mg/kg
ED50 (Mus musculus [14]): 0.6 mg/kg
FRE (Staphylococcus aureus [15]): 4.51e-05
FRE (Staphylococcus aureus [16]): 2.1e-06
FRE (Staphylococcus aureus [17]): 3.1e-05
MPC (Staphylococcus aureus [18]): 10 µg/mL
MPC (Staphylococcus aureus [19]): 10 µg/mL
MIC [4]: 0.06 µg/mL (≈ 0.149 µM)
MIC (Staphylococcus aureus [20]): 4 µg/mL (≈ 9.96 µM)
MIC (Pseudomonas aeruginosa): 4 µg/mL (≈ 9.96 µM)
MIC (Staphylococcus aureus [21]): 2 µg/mL (≈ 4.98 µM)
MIC (Staphylococcus aureus [22]): 2 µg/mL (≈ 4.98 µM)
MIC (Staphylococcus aureus [23]): 2 µg/mL (≈ 4.98 µM)

COc1c(N2CCNC(C)C2)c(F)cc2c(=O)c(C(=O)O)cn(C3CC3)c12 (stereo not given) [GATIFLOXACIN]
MIC (Streptococcus agalactiae): 0.25 µg/mL (≈ 0.666 µM)
MIC [1]: 0.25 µg/mL (≈ 0.666 µM)
MIC (Enterococcus faecalis): 0.25 µg/mL (≈ 0.666 µM)
MIC (Klebsiella pneumoniae): 0.008 µg/mL (≈ 0.0213 µM)
MIC (Phocaeicola vulgatus): 0.5 µg/mL (≈ 1.33 µM)
MPC (Staphylococcus aureus [11]): 8 µg/mL
MIC (Staphylococcus aureus [2]): 0.1 µg/mL (≈ 0.266 µM)
MIC (Streptococcus sanguinis): 0.5 µg/mL (≈ 1.33 µM)
MIC (Streptococcus pyogenes): 0.25 µg/mL (≈ 0.666 µM)
FRE (Staphylococcus aureus [15]): 0.000451
FRE (Staphylococcus aureus [16]): 0.0041
FRE (Staphylococcus aureus [17]): 3.51e-06
MPC (Staphylococcus aureus [18]): 8 µg/mL
MPC (Staphylococcus aureus [19]): 14 µg/mL
MPC/MIC (Staphylococcus aureus [24]): 2
MPC/MIC (Staphylococcus aureus [25]): 3.5
MPC/MIC (Staphylococcus aureus [26]): 2
MIC [4]: 0.06 µg/mL (≈ 0.16 µM)
logD (physchem [27]): -0.79
pKa (physchem [28]): 5.97
pKa (physchem [29]): 9.82
logD (physchem [30]): -1.14
MIC (Streptococcus pneumoniae [31]): 0.5 µg/mL (≈ 1.33 µM)
MIC (Streptococcus pneumoniae [32]): 0.5 µg/mL (≈ 1.33 µM)
MIC (Escherichia coli): 0.03 µg/mL (≈ 0.0799 µM)
MIC (Pseudomonas aeruginosa): 4 µg/mL (≈ 10.7 µM)

C[C@H]1CCc2c(N3CCC(O)CC3)c(F)cc3c(=O)c(C(=O)O)cn1c23.N=C(N)NCCC[C@H](N)C(=O)O.O.O.O.O
MIC (Staphylococcus aureus [10]): 2 µg/mL
MIC (Streptococcus agalactiae): 0.12 µg/mL
MIC (Staphylococcus aureus [33]): 1 µg/mL
MIC [1]: 0.06 µg/mL
MIC (Enterococcus faecalis): 0.25 µg/mL
MIC (Klebsiella pneumoniae): 0.008 µg/mL
MIC (Staphylococcus aureus [34]): 0.03 µg/mL
MIC (Phocaeicola vulgatus): 0.5 µg/mL
MPC (Staphylococcus aureus [11]): 2 µg/mL
MIC (Staphylococcus aureus [35]): 0.032 µg/mL
MIC (Staphylococcus aureus [2]): 0.03 µg/mL
MIC (Streptococcus sanguinis): 0.25 µg/mL
MIC (Staphylococcus aureus [3]): 0.032 µg/mL
MIC (Streptococcus pyogenes): 0.06 µg/mL
MIC (Staphylococcus aureus [36]): 0.016 µg/mL
ED50 (Mus musculus [12]): 27.8 mg/kg
ED50 (Mus musculus [13]): 38.3 mg/kg
MIC (Staphylococcus aureus [37]): 1 µg/mL
MIC (Staphylococcus aureus [38]): 0.5 µg/mL
ED50 (Mus musculus [7]): 93.6 mg/kg
ED50 (Mus musculus [14]): 0.59 mg/kg
FRE (Staphylococcus aureus [15]): <6.51e-09
FRE (Staphylococcus aureus [16]): <3.51e-09
FRE (Staphylococcus aureus [17]): <4.1e-07
MPC (Staphylococcus aureus [18]): 2 µg/mL
MPC (Staphylococcus aureus [19]): 2 µg/mL
NOEL (Rattus norvegicus): 250 mg/kg
Cmax [39]: 4000 ng/mL
half-life [40]: 6 h
MIC [4]: 0.015 µg/mL
IC50 (DNA gyrase [41]): 8.24 µM
IC50 [42]: 8.24 µM
MIC (Streptococcus pneumoniae [31]): 0.12 µg/mL
MIC (Streptococcus pneumoniae [32]): 0.12 µg/mL
MIC (Escherichia coli): 0.12 µg/mL
MIC (Pseudomonas aeruginosa): 4 µg/mL
MIC (Staphylococcus aureus [21]): 1 µg/mL
MIC (Staphylococcus aureus [22]): 1 µg/mL
MIC (Staphylococcus aureus [23]): 1 µg/mL

N[C@@H]1[C@H]2CN(c3nc4c(cc3F)c(=O)c(C(=O)O)cn4-c3ccc(F)cc3F)C[C@@H]12 [TROVAFLOXACIN]
logD (physchem [27]): 0.42
pKa (physchem [28]): 4.45
pKa (physchem [29]): 8.02
pKa (physchem [43]): 8.13
logD (physchem [30]): -0.35

CC1CCc2c(N3CCC(O)CC3)c(F)cc3c(=O)c(C(=O)O)cn1c23 (stereo not given) [NADIFLOXACIN]
MIC (Staphylococcus aureus [33]): 32 µg/mL (≈ 88.8 µM)
MIC (Staphylococcus aureus [35]): 1 µg/mL (≈ 2.77 µM)
MIC (Staphylococcus aureus [3]): 1 µg/mL (≈ 2.77 µM)
MIC (Staphylococcus aureus [36]): 0.25 µg/mL (≈ 0.694 µM)
IC50 (DNA gyrase [44]): 27.7 µM
IC50 [42]: > 27.7 µM
CC50 [45]: > 10 µg/mL
CC50 [46]: 25 µg/mL (≈ 69.4 µM)
pKa (physchem [28]): 6.8
